We go through 28 compounds from patent publication US8492589B2, “Alkynyl phenyl derivative compounds for treating ophthalmic diseases and disorders” (Acucela Inc., priority 2007, dated 2013).

The test system of assay [1] is retinoid nuclear receptors (RAR and RXR). The assay is described as follows: Retinoid nuclear receptor activity, RAR and RXR together. Format: cell-based. The following applies: reference agonists.
Assay [2] deals with T1, visual cycle isomerase (Bovine RPE microsome membranes) (Bos taurus, UniProt Q28175).
T1 construct: Bovine Retinal Pigment Epithelium (RPE) microsome membranes were the source of a visual cycle isomerase; from tissue; host or cells: bovine retinal pigment epithelium microsome membranes
T1 sequence (Q28175 2-533 limits assumed): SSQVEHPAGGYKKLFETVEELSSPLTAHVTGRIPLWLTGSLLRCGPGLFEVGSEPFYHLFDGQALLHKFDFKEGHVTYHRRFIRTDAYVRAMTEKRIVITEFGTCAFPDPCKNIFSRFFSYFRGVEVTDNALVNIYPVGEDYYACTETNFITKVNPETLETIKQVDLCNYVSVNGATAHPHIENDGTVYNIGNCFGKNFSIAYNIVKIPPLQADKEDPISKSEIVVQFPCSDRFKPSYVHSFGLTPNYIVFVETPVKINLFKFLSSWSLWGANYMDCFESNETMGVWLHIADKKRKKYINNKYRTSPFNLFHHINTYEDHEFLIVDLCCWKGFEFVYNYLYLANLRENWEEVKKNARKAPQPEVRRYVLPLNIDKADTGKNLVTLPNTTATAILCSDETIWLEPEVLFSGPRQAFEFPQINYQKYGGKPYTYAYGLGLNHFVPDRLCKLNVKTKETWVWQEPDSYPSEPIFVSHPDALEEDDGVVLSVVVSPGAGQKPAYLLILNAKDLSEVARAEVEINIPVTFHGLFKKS
The assay is described as follows: In vitro isomerase inhibition assay, bovine RPE microsome membranes. It counts as biochemical. The following applies: bovine RPE microsomes; 11-cis retinol formation. As to the method: The capability of alkynyl phenyl-linked amine derivative compounds to inhibit the activity of a visual cycle isomerase was determined.
Bovine Retinal Pigment Epithelium (RPE) microsome membranes were the source of a visual cycle isomerase.
Crude RPE microsome extracts were thawed in a 37° C. water bath, and then immediately placed on ice. 50 ml crude RPE microsomes were placed into a 50 ml Teflon-glass homogenizer (Fisher Scientific, catalog no. 0841416M) on ice, powered by a hand-held DeWalt drill, and homogenized ten times up and down on ice under maximum speed. This process was repeated until the crude RPE microsome solution was homogenized. The homogenate was then subjected to centrifugation (50.2 Ti rotor (Beckman, Fullerton, Calif.), 13,000 RPM; 15360 Rcf) for 15 minutes at 4° C. The supernatant was collected and subjected to centrifugation at 42,000 RPM (160,000 Rcf; 50.2 Ti rotor) for 1 hour at 4° C. The supernatant was removed, and the pellets were suspended in 12 ml (final volume) cold 10 mM MOPS buffer, pH 7.0. The resuspended RPE membranes in 5 ml aliquots were homogenized in a glass-to-glass homogenizer (Fisher Scientific, catalog no. K885500-0021) to high homogeneity. Protein concentration was quantified using the BCA protein assay according to the manufacturer's protocol (Pierce, Rockford, Ill.). The homogenized RPE preparations were stored at −80° C.
Recombinant human apo cellular retinaldehyde-binding protein (CRALBP) was cloned and expressed according to standard methods in the molecular biology art (see Crabb et al., Protein Science 7:746-57 (1998); Crabb et al., J. Biol. Chem. 263:18688-92 (1988)). Briefly, total RNA was prepared from confluent ARPE19 cells (American Type Culture Collection, Manassas, Va.), cDNA was synthesized using an oligo(dT)12-18 primer, and then DNA encoding CRALBP was amplified by two sequential polymerase chain reactions (see Crabb et al., J. Biol. Chem. 263:18688-92 (1988); Intres, et al., J. Biol. Chem. 269:25411-18 (1994); GenBank Accession No. L34219.1). The PCR product was sub-cloned into pTrcHis2-TOPO TA vector according to the manufacturer's protocol (Invitrogen Inc., Carlsbad, Calif.; catalog no. K4400-01), and then the sequence was confirmed according to standard nucleotide sequencing techniques. Recombinant 6×His-tagged human CRALBP was expressed in One Shot TOP 10 chemically competent E. coli cells (Invitrogen), and the recombinant polypeptide was isolated from E. coli cell lysates by nickel affinity chromatography using nickel (Ni) Sepharose XK16-20 columns for HPLC (Amersham Bioscience, Pittsburgh, Pa.; catalog no. 17-5268-02). The purified 6×His-tagged human CRALBP was dialyzed against 10 mM bis-tris-Propane (BTP) and analyzed by SDS-PAGE. The molecular weight of the recombinant human CRALBP was approximately 39 kDal.
Alkkynyl phenyl-linked amine derivative compounds and control compounds were reconstituted in ethanol to 0.1 M. Ten-fold serial dilutions (10^−2, 10^−3, 10^−4, 10^−5, 10^−6 M) in ethanol of each compound were prepared for analysis in the isomerase assay.
The isomerase assay was performed in 10 mM bis-tris-propane (BTP) buffer, pH 7.5, 0.5% BSA (diluted in BTP buffer), 1 mM sodium pyrophosphate, 20 μM all-trans retinol (in ethanol), and 6 μM apo-CRALBP. The test compounds (2 μl) (final […] dilution of serial dilution stocks) were added to the above reaction mixture to which RPE microsomes were added. The same volume of ethanol was added to the control reaction (absence of test compound). Bovine RPE microsomes (9 μl) (see above) were then added, and the mixtures transferred to 37° C. to initiate the reaction (total volume=150 μl). The reactions were stopped after 30 minutes by adding methanol (300 μl). Heptane was added (300 μl) and mixed into the reaction mixture by pipetting. Retinoid was extracted by agitating the reaction mixtures, followed by centrifugation in a microcentrifuge. […]

The structures appear in SMILES notation.

On to `CC1=C(/C=C/C(C)=C/C=C/C(C)=C/C(=O)O)C(C)(C)CCC1` [at-RA, all-trans-retinoic acid], for which the “activation of the RXRα, RARα, RARβ and RARγ receptors” value in assay [1] is recorded as “activated”.
One may read the IC50 as the midpoint of a concentration-inhibition curve. A low value points to inhibition by little substance. In the case of `NCCOc1cccc(C#CCCc2ccccc2)c1` [Example 86, 2-(3-(4-Phenylbut-1-ynyl)phenoxy)ethanamine], in assay [2], the IC50 was ≤ 1 µM.
Still for that read-out and setting: the figure for `NCCCc1cccc(C#Cc2cccc(-c3ccccc3)c2)c1` [Example 46, 3-(3-(Biphenyl-3-ylethynyl)phenyl)propan-1-amine] is ≤ 100 µM.
Still for that read-out and setting: for `NCCCc1cccc(C#CCCO)c1` [Example 34, 4-(3-(3-Aminopropyl)Phenyl)But-3-Yn-1-ol] the value was ≤ 100 µM.
The same measure, in the same setting: for `NCCOc1cccc(C#CCC2CCCC2)c1` [Example 85, 2-(3-(3-Cyclopentylprop-1-ynyl)phenoxy)ethanamine] the value was ≤ 1 µM; for `COc1ccccc1C#Cc1cccc(OCCN)c1` [Example 91, 2-(3-((2-Methoxyphenyl)Ethynyl)Phenoxy)Ethanamine], ≤ 1 µM.
On to `COCCCCC#Cc1cccc(CCCN)c1` [Example 67, 3-(3-(6-Methoxyhex-1-ynyl)phenyl)propan-1-amine], for which the IC50 in assay [2] was ≤ 1 µM.
Regarding `CCCC#Cc1cccc(CCCN)c1` [Example 43, 3-(3-(Pent-1-ynyl)phenyl)propan-1-amine], the IC50 in assay [2] is ≤ 1 µM.
For `C/C(=C\c1ccc(C(=O)O)cc1)c1ccc2c(c1)C(C)(C)CCC2(C)C` [TTNPB, E-4-[2-(5,6,7,8-tetrahydro-5,5,8,8-tetramethyl-2-naphthylenyl)-1-propenyl]benzoic acid], the “activation of the RXRα, RARα, RARβ and RARγ receptors” value in assay [1] is given as “activated”.
For `NCCCc1cccc(C#CC2(O)CCCCCC2)c1` [Example 58, 1-((3-(3-Aminopropyl)phenyl)ethynyl)cycloheptanol], the IC50 in assay [2] was ≤ 1 µM.
Regarding `CC(C)(C)C#Cc1cccc(CCCN)c1` [Example 40, 3-(3-(3,3-Dimethylbut-1-Ynyl)Phenyl)Propan-1-Amine], in assay [2], the IC50 is ≤ 10 µM.
`NCCCc1cccc(C#Cc2cccnc2)c1` [Example 64, 3-(3-(Pyridin-3-ylethynyl)phenyl)propan-1-amine]: the IC50 in assay [2] was ≤ 10 µM.
Still for that read-out and setting: the figure for `CCCCCC#Cc1cccc(OCCN)c1` [Example 77, 2-(3-(hept-1-ynyl)phenoxy)ethanamine] is ≤ 1 µM; for `COCC#Cc1cccc(CCCN)c1` [Example 9, 3-(3-(3-Methoxyprop-1-ynyl)phenyl)propan-1-amine] it is ≤ 10 µM; for `CC(O)(C#Cc1cccc(CCCN)c1)c1ccccc1` (stereo not shown) [Example 22, 4-(3-(3-Aminopropyl)Phenyl)-2-Phenylbut-3-Yn-2-ol] it is ≤ 1 µM.
On the same count and under the same terms, for `NCCCc1cccc(C#Cc2ccc3ccccc3c2)c1` [Example 45, 3-(3-(Naphthalen-2-ylethynyl)phenyl)propan-1-amine] the value was ≤ 1000 µM; for `NCCCc1cccc(C#CCC2CCCC2)c1` [Example 39, 3-(3-(3-Cyclopentylprop-1-ynyl)phenyl)propan-1-amine], ≤ 1 µM; for `Cc1ccccc1C#Cc1cccc(CCCN)c1` [Example 83, 3-(3-(o-Tolylethynyl)phenyl)propan-1-amine], ≤ 10 µM.
Turning to `NCCCc1cccc(C#C[C@H](O)c2ccccc2)c1` [Example 16, (R)-3-(3-(3-Aminopropyl)phenyl)-1-phenylprop-2-ynol], in assay [2], the 50% inhibitory concentration (IC50) is ≤ 1 µM.
As for `CCCCC(O)(C#Cc1cccc(CCCN)c1)CCCC` [Example 3, 5-((3-(3-Aminopropyl)phenyl)ethynyl)nonan-5-ol], the IC50 in assay [2] was ≤ 1 µM.
On to `COCCCC#Cc1cccc(CCCN)c1` [Example 70, 3-(3-(5-Methoxypent-1-ynyl)phenyl)propan-1-amine], for which, in assay [2], the IC50 is ≤ 1 µM.
`CCCC(C)(O)C#Cc1cccc(CCCN)c1` (stereo not shown) [Example 5, 1-(3-(3-Aminopropyl)phenyl)-3-methylhex-1-yn-3-ol]: the IC50 in assay [2] was ≤ 1 µM.
On to `CSc1ccc(C#Cc2cccc(CCCN)c2)cc1` [Example 94, 3-(3-((4-(Methylthio)phenyl)ethynyl)phenyl)propan-1-amine], for which, in assay [2], the IC50 is ≤ 100 µM.
Take `N#Cc1cccc(C#Cc2cccc(OCCN)c2)c1` [Example 88, 3-((3-(2-Aminoethoxy)phenyl)ethynyl)benzonitrile]: in assay [2], the IC50 is ≤ 10 µM.
Same read-out and setting: for `NCCOc1cccc(C#Cc2cccs2)c1` [Example 95, 2-(3-(Thiophen-2-ylethynyl)phenoxy)ethanamine] the value was ≤ 1 µM; for `NCCOc1cccc(C#Cc2ccccn2)c1` [Example 98, 2-(3-(Pyridin-2-ylethynyl)phenoxy)ethanamine], ≤ 10 µM.
On to `CC(C)CC#Cc1cccc(OCCN)c1` [Example 73, 2-(3-(4-Methylpent-1-ynyl)phenoxy)ethanamine], for which the IC50 in assay [2] was ≤ 1 µM.
As to `NCCCc1cccc(C#CCCCCO)c1` [Example 68, 6-(3-(3-Aminopropyl)phenyl)hex-5-yn-1-ol], the IC50 in assay [2] was ≤ 1 µM.
